According to ChEMBL document CHEMBL1139457, “Pyrrolo[1,3]benzothiazepine-based serotonin and dopamine receptor antagonists. Molecular modeling, further structure-activity relationship studies, and identification of novel atypical antipsychotic agents” (J Med Chem, 2004):
Values joined by “and” are separate entries in the source; they are usually repeats but may differ in a detail not shown here. Equal values may be shown once. Each block holds one compound with its values, some of them ahead of it. Active and inactive are the calls of the source. The calls are words filed in the database; no cut-off is given here.

Experiments:
D(3) dopamine receptor [1] = biological target: T1, D(3) dopamine receptor (Rattus norvegicus, UniProt P19020); assay: biochemical; assay type: cell-based, Sf9
Description: (§1) In vitro binding affinity towards Dopamine receptor D3 in Sf9 cell membranes using [3H]7-OH-DPAT as radioligand

[2] = biological target: T2, 5-hydroxytryptamine receptor 2A (Rattus norvegicus, UniProt P14842)
Description: In vitro binding affinity towards 5-hydroxytryptamine 2A receptor in rat tissue homogenate using [3H]ketanserin as radioligand

D(1A) dopamine receptor [3] = biological target: T3, D(1A) dopamine receptor (Rattus norvegicus, UniProt P18901); parameters: species or system Tissue
Description: In vitro binding affinity towards Dopamine receptor D1 in rat tissue homogenate using [3H]-SCH- 23390 as radioligand

Histamine H1 receptor = Histamine H1 receptor (Rattus norvegicus, UniProt P31390); assay: biochemical; assay type: tissue-based, Frontal cortex
Description: In vitro binding affinity towards Histamine H1 receptor of rat frontal cortex homogenate by using radioligand [3H]pyrilamine

[4] = biological target: T4, Muscarinic acetylcholine receptor M1 (Rattus norvegicus, UniProt P08482); assay: biochemical; assay type: tissue-based, Frontal cortex
T4 sequence (P08482 whole entry): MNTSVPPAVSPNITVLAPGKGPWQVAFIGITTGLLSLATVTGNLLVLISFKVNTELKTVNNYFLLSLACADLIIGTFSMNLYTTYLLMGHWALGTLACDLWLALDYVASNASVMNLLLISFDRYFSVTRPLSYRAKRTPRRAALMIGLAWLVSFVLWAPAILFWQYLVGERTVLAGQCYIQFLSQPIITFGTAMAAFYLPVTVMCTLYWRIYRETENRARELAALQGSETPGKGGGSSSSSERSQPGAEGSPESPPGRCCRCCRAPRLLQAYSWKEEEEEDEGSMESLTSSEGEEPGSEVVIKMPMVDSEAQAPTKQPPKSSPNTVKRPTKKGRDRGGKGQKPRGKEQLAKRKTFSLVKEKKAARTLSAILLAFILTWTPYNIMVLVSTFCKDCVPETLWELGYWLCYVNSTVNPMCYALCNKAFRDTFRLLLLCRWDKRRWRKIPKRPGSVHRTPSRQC
Description: In vitro binding affinity towards M1 receptor of rat frontal cortex homogenate by using radioligand [3H]QNB

[5] = biological target: T5, Adrenergic receptor alpha-1 (Rattus norvegicus, UniProt P15823+P23944+P43140); assay type: tissue-based, Frontal cortex
T5 sequence (P15823 whole entry): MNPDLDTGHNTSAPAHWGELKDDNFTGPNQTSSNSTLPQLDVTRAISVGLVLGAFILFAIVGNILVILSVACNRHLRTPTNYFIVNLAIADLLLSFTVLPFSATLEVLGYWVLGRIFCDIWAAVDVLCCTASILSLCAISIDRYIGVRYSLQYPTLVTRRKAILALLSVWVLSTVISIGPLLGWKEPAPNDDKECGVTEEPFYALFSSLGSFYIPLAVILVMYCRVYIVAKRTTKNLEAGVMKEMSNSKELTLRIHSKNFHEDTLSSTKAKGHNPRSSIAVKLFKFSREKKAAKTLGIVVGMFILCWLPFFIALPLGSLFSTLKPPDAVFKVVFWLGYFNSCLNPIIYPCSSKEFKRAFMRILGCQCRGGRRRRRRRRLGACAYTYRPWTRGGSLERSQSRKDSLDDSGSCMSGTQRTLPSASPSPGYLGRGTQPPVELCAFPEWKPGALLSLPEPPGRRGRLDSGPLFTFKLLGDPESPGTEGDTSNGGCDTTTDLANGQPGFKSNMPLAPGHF
T5 sequence (P23944 whole entry): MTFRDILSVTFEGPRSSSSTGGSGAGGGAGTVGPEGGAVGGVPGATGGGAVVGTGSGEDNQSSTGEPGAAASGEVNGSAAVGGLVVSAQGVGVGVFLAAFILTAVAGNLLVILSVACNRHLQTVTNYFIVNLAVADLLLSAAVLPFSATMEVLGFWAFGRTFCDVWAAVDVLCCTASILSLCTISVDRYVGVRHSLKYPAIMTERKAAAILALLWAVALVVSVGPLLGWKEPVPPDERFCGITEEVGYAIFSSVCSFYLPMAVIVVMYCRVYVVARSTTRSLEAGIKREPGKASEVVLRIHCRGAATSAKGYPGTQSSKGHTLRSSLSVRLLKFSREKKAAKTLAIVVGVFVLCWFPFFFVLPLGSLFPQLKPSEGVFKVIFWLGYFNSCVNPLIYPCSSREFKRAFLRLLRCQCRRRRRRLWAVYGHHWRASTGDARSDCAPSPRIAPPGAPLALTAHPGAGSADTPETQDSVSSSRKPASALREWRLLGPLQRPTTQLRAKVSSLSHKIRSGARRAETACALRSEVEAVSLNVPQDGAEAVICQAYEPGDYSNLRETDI
T5 sequence (P43140 whole entry): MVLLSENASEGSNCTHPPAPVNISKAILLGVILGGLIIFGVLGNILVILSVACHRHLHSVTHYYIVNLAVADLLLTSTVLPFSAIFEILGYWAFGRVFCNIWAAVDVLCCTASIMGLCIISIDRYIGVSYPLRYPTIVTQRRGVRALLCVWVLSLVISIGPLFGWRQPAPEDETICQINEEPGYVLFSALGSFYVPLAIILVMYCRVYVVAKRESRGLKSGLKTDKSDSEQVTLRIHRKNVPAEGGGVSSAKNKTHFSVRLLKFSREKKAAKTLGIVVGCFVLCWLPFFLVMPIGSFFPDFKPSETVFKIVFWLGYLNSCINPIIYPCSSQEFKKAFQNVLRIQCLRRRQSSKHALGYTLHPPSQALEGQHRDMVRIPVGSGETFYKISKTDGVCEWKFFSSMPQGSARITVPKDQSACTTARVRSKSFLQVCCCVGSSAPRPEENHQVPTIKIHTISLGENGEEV
Description: In vitro binding affinity towards alpha-1 adrenergic receptor in rat frontal cortex homogenate using of [3H]prazosin as radioligand

Rattus norvegicus [6] = species: Rattus norvegicus; assay: animal or person; assay type: functional; details: po
Description: In vivo inhibition against MK-801 induced hyperactivity in rats after oral administration

Mus musculus [7] = species: Mus musculus; assay: animal or person; assay type: functional; details: po
Description: In vivo inhibitory activity against 5-MeO-DMT-Induced Head-Twitches in mouse after oral administration

Rattus norvegicus [8] = species: Rattus norvegicus; assay: animal or person; assay type: functional; details: po; remark: listed apart in the source
Description: In vivo inhibition against conditioned avoidance response in rats after oral administration

Mus musculus [9] = species: Mus musculus; assay: animal or person; assay type: functional; details: po; remark: listed apart in the source
Description: In vivo inhibitory activity tested in apomorphine climbing mice after oral administration

Rattus norvegicus [10] = species: Rattus norvegicus; assay: animal or person; assay type: functional; details: po; remark: listed apart in the source
Description: In vivo inhibition of spontaneous locomotory activity tested in rats after oral administration

[11] = biological target: 5-hydroxytryptamine receptor 2A (Homo sapiens, UniProt P28223)
Description: In vitro binding affinity towards 5-hydroxytryptamine 2A receptor in human using [3H]ketanserin as radioligand

Rattus norvegicus [12] = species: Rattus norvegicus; assay type: functional; details: dose 0.3 mg/kg, route intraperitoneal
Description: Inhibitory activity tested in rats after intraperitoneal administration at 0.3 mg/kg with saline

Rattus norvegicus [13] = species: Rattus norvegicus; assay: animal or person; assay type: functional; details: po; remark: listed apart in the source
Description: In vivo inhibition against catalepsy in rats after oral administration evaluated by metal bar

[14] = biological target: T6, Adrenergic receptor alpha-2 (Rattus norvegicus, UniProt P22086+P19328+P22909); assay type: tissue-based, Frontal cortex
T6 sequence (P22086 whole entry): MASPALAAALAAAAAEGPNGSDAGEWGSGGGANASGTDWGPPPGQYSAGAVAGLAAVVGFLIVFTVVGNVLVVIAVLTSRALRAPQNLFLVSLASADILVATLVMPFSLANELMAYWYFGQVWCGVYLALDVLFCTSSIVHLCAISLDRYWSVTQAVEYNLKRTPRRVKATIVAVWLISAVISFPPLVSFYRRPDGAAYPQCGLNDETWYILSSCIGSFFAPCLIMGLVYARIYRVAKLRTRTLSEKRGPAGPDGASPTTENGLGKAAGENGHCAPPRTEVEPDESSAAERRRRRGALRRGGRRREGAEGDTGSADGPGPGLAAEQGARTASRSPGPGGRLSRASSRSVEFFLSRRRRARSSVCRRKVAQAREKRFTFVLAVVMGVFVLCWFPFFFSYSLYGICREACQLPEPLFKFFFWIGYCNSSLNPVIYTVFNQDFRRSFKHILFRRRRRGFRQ
T6 sequence (P19328 whole entry): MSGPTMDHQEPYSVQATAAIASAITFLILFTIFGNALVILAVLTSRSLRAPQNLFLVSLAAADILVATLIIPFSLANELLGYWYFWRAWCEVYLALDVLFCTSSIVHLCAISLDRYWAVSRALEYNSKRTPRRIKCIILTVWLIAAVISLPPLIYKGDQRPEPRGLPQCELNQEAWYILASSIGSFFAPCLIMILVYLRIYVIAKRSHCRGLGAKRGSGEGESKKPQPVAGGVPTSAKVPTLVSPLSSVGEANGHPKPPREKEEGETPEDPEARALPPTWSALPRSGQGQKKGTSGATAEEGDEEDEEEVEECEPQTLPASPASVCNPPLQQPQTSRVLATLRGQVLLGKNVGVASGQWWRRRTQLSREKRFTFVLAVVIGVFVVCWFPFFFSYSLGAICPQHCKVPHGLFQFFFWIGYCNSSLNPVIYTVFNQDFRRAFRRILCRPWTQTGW
T6 sequence (P22909 whole entry): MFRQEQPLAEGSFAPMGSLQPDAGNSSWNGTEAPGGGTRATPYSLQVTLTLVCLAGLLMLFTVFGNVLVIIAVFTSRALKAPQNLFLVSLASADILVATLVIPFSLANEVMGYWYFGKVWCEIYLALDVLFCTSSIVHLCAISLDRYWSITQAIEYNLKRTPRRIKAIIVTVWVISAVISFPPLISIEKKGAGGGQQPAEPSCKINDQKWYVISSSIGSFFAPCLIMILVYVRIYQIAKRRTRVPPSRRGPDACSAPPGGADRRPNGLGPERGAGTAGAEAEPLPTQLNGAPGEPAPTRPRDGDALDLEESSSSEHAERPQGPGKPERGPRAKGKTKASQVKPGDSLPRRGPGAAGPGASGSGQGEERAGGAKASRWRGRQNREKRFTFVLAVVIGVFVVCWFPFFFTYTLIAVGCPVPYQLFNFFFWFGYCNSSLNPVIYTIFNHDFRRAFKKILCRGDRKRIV
Description: In vitro binding affinity towards alpha-2 adrenergic receptor in rat frontal cortex homogenate using of [3H]clonidine as radioligand

Rattus norvegicus [15] = species: Rattus norvegicus; assay type: functional
Description: Minimal inhibitory activity tested in rats after intraperitoneal administration

D(2) dopamine receptor = D(2) dopamine receptor (Rattus norvegicus, UniProt P61169); parameters: species or system Tissue
D(1A) dopamine receptor [16] = biological target: T3, D(1A) dopamine receptor; parameters: species or system Tissue; remark: listed apart in the source
Mus musculus [17] = species: Mus musculus
[18] = biological target: T2, 5-hydroxytryptamine receptor 2A; parameters: species or system Tissue
D(3) dopamine receptor [19] = biological target: T1, D(3) dopamine receptor; assay type: cell-based; details: sf9
Description: as §1

D(2) dopamine receptor, sequence (P61169 whole entry): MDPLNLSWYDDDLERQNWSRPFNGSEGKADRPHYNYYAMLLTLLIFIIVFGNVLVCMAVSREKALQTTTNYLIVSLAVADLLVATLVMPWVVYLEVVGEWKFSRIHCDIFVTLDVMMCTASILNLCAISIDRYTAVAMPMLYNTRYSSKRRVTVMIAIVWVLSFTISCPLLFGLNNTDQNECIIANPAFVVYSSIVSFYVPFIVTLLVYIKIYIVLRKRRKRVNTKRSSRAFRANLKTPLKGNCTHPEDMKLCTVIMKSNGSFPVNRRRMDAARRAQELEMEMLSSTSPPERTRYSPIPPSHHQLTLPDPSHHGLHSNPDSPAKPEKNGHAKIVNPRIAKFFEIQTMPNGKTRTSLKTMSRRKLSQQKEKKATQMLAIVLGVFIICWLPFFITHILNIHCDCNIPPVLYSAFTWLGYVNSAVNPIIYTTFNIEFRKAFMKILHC
T1 sequence (P19020 whole entry): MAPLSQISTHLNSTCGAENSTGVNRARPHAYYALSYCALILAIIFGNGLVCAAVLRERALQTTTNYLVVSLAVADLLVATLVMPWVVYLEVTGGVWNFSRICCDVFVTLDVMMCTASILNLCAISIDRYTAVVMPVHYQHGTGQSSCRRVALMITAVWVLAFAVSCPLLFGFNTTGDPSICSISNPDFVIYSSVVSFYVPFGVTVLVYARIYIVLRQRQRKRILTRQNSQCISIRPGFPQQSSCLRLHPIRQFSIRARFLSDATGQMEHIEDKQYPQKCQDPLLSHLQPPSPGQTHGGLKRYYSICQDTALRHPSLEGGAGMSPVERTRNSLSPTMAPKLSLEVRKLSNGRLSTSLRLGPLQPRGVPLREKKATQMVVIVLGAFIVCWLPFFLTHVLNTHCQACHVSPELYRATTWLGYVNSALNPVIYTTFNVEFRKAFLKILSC
T3 sequence (P18901 whole entry): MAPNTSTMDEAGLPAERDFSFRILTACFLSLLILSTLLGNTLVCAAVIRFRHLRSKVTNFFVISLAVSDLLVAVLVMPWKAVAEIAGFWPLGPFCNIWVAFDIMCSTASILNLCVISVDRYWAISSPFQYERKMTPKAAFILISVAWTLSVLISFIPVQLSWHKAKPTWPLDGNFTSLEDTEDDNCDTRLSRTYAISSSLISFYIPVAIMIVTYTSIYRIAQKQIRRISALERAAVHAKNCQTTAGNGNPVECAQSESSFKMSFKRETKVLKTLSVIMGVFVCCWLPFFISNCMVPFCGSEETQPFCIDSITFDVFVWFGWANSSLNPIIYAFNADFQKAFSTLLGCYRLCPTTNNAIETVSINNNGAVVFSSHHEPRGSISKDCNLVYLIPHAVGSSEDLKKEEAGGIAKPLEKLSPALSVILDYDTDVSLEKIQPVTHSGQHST
T2 sequence (P14842 whole entry): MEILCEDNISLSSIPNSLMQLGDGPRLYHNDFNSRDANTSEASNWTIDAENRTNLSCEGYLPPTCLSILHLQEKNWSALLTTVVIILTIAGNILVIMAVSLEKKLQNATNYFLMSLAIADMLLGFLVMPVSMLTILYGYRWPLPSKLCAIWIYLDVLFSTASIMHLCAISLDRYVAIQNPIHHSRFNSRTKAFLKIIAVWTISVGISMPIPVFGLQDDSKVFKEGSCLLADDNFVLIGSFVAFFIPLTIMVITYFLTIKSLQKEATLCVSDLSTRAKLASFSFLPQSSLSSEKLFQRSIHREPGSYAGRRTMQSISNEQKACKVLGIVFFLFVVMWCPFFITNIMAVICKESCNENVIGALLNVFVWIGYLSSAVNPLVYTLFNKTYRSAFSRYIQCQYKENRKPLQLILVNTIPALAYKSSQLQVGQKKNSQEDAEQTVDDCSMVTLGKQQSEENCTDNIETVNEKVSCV
Histamine H1 receptor, sequence (P31390 whole entry): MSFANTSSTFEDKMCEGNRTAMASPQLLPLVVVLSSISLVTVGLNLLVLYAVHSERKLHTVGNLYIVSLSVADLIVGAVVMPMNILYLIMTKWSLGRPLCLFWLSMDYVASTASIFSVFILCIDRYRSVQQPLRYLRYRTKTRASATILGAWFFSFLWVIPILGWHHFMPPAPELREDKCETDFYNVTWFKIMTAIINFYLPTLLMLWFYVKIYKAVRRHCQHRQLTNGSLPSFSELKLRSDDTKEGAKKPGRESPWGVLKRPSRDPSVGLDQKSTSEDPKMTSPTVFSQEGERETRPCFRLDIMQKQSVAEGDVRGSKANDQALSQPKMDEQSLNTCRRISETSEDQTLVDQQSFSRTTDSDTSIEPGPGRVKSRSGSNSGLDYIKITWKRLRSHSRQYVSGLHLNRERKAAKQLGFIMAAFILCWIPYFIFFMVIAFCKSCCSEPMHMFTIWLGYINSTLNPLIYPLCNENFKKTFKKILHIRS
5-hydroxytryptamine receptor 2A (Homo sapiens, UniProt P28223), sequence (P28223 whole entry): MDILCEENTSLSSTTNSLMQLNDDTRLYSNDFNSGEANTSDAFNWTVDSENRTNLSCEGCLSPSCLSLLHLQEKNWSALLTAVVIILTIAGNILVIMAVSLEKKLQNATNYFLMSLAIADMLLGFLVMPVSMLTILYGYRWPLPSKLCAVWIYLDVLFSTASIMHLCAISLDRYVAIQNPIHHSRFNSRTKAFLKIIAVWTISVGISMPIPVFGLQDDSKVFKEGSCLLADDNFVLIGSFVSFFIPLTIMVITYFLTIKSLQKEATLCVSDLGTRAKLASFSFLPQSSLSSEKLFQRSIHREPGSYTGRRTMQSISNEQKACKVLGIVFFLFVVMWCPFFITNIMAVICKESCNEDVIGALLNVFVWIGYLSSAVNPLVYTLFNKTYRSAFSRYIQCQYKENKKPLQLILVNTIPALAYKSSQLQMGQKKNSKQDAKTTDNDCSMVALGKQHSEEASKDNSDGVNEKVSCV

Ki (D(3) dopamine receptor [1]): 66 nM | Ki [2]: 74 nM | Ki (D(1A) dopamine receptor [3]): 1.62 µM
SMILES: O=C1NCCN1CCN1CCN(C2Cn3cccc3Sc3ccc(Cl)cc32)CC1 (configuration not stated)

Ki (D(3) dopamine receptor [1]): 0.25 nM | Ki [2]: 0.83 nM | Ki (D(1A) dopamine receptor [3]): 0.0034 µM
SMILES: CN1CCN(C2=Cn3cccc3Sc3ccc(Br)cc32)CC1

Ki (D(3) dopamine receptor [1]): 113 nM | Ki [2]: 19 nM | Ki (D(1A) dopamine receptor [3]): 1.74 µM
SMILES: CN1CCN(C2=Cn3c(CO)ccc3Sc3ccccc32)CC1

Ki (Histamine H1 receptor): 2.7 nM | Ki [4]: 2070 nM | Ki [5]: 0.5 nM | Ki [11]: 1.1 nM | Ki [14]: 1020 nM
SMILES: CN1CCN(C2=Cn3cccc3Sc3ccccc32)CC1
ED50 (Rattus norvegicus [6]): 1.1 mg/kg and 3.69 µmol/kg | ED50 (Mus musculus [7]): 1.99 mg/kg and 6.7 µmol/kg | ED50 (Rattus norvegicus [8]): 1.1 mg/kg and 3.7 µmol/kg | ED50 (Mus musculus [9]): 1.64 mg/kg and 5.5 µmol/kg | ED50 (Rattus norvegicus [10]): 0.51 mg/kg and 1.71 µmol/kg | Correct responses (Rattus norvegicus [12]): 80.1% and 81.5% | ED50 (Rattus norvegicus [13]): > 100 mg/kg and > 336 µmol/kg | Min ID (Rattus norvegicus [15]): 1 µM/kg

Ki (D(2) dopamine receptor): Not Active | Ki (D(3) dopamine receptor [1]): > 1000 nM | Ki [2]: 2300 nM | Ki (D(1A) dopamine receptor [16]): Not Active
SMILES: CN1CCN(C2=C(C=O)n3c(C=O)ccc3Sc3ccccc32)CC1

Ki (D(3) dopamine receptor [1]): 4.3 nM | Ki [2]: 4.3 nM | Ki (D(1A) dopamine receptor [3]): 0.00587 µM
SMILES: CN1CCCN(C2=Cn3cccc3Sc3ccc(Cl)cc32)CC1

Ki (D(3) dopamine receptor [1]): 278 nM | Ki [2]: 217 nM | Ki (D(1A) dopamine receptor [3]): 7.6 µM
SMILES: CC(C)OCc1ccc2n1C=C(N1CCN(C)CC1)c1ccccc1S2

Ki (D(3) dopamine receptor [1]): 316 nM | Ki [2]: 405 nM | Ki (D(1A) dopamine receptor [3]): > 1000 µM
SMILES: COCc1ccc2n1CC(N1CCN(C)CC1)c1cc(Cl)ccc1S2 (configuration not stated)

Ki (D(3) dopamine receptor [1]): 102 nM | Ki [2]: 20 nM | Ki (D(1A) dopamine receptor [3]): 4.28 µM
SMILES: CN1CCN(C2=Cn3c(C=O)ccc3Sc3ccccc32)CC1

Ki (D(2) dopamine receptor): Not Active | Ki (D(3) dopamine receptor [1]): 4260 nM | Ki [2]: 1980 nM | Ki (D(1A) dopamine receptor [16]): Not Active
SMILES: CN1CCN(C2=Cn3c(/C=N/O)ccc3Sc3ccccc32)CC1

SMILES: CN1CCN([C@@H]2Cn3cccc3Sc3ccc(Cl)cc32)CC1
ED50 (Mus musculus [7]): 14.3 µmol/kg | ED50 (Rattus norvegicus [13]): 115 µmol/kg | ED50 (Mus musculus [17]): inactive

Ki (Histamine H1 receptor): 2.7 nM | Ki [4]: 2300 nM | Ki [5]: 4.2 nM
SMILES: Cc1ccc2n1C=C(N1CCN(C)CC1)c1ccccc1S2

Ki (D(2) dopamine receptor): Not Active | Ki [18]: Not Active | Ki (D(1A) dopamine receptor [16]): Not Active | Ki (D(3) dopamine receptor [19]): Not Active
SMILES: CN1CCN(C2Cn3c(CO)ccc3Sc3ccc(Cl)cc32)CC1 (configuration not stated)
